The target of the assay is Arf6 (Homo sapiens (Human), UniProt P62330). The assay can be described thus: Fluorometric assay for Arf6 nucleotide exchange catalyzed by ARNO Sec7 domain (GTP-BODIPY FL). The class given is biochemical. The procedure: FIGS. 1A-1D: Fluorometric high throughput assay for Arf6 nucleotide exchange catalyzed by ARNO Sec7 domain. FIG. 1A: Principle of the assay. FIG. 1B: SDS-PAGE analysis of N-terminally His-tagged Arf6(14-175) and ARNO(50-255) purified from the E. coli cultures by immobilized metal affinity chromatography. FIG. 1C: Correlation between signal intensity and ARNO concentration. The assay was performed using 50 mM Tris-HCl, pH 7.5, 1 mM MgCl2, 0.01% TX-100, 1% DMSO, 50 nM GTP-BODIPY FL, supplemented with ARNO-Sec7 at indicated concentrations in the absence or in the presence of 0.2 μM Arf6-GDP. Fluorescence intensities were monitored using a Synergy 4 plate reader (BioTek) at the excitation and emission wavelengths of 490 nm and 520 nm, respectively. FIG. 1D: Time course of apparent inhibitory potency of GDP. The assay was performed in automated mode using a Matrix PlateMate liquid handler.
The primary biochemical assay uses a fluorometric assay for monitoring the replacement of bound nucleotide with a fluorogenic GTP derivative bearing a BODIPY FL moiety, allowing for the identification of compounds that can inhibit this exchange (see FIG. 1A). In certain embodiments, the methods disclosed herein may exploit the reduction of intramolecular fluorescence quenching of the modified nucleotide upon its binding to the target protein (see, e.g., McEwen D P, Gee K R, Kang H C, Neubig R R. Fluorescent BODIPY-GTP analogs: real-time measurement of nucleotide binding to G proteins. Anal Biochem. 2001 Apr. 1; 291(1): 109-17).
The fluorometric assay formatted for 96-well microtiter plates has passed quality control based on the following criteria: i) S/B ratio of 4-fold and Z′-factor of 0.61; ii) linear correlation between signal intensity and ARNO concentration (see FIG. 1C); iii) sufficiently reproducible inhibitory effects of the reference inhibitor GDP for assay durations up to at least 1 hour (see FIG. 1D); and iv) lack of apparent fluorescence quenchers among 400 randomly selected compounds. The assay is amenable to automation with a throughput of approximately 5,000 data points per 8 hours.

[1] abbreviates: 20 nM Arf6 assay, read-out: IC50 (μM) 20 nM Arf6.
Setting [2] is: 200 nM Arf6 assay, read-out: IC50 (μM) 200 nM Arf6.

Where two headings read alike, the source gives them in different places.

Sequence of Arf6 (P62330 14-175): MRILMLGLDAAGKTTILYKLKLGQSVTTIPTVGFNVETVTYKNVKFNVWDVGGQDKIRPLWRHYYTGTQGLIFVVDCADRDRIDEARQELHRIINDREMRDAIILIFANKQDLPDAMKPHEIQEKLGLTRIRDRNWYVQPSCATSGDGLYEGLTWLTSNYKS

For the compound `O=c1cc(-c2cccc(-c3cccnc3)c2)[nH]c2c(-c3ccc(Cl)c(Cl)c3)c(C(F)(F)F)nn12` [Compound 1], under setting [1], the IC50 (usually the midpoint of a concentration-inhibition curve) is 0.25 µM.
Consider `O=c1cc(-c2cccc(Oc3cc(F)cc(F)c3)c2)[nH]c2c(-c3ccc(Cl)c(Cl)c3)c(C(F)(F)F)nn12` [Compound 2], for which, under setting [1], the IC50 worked out at 0.33 µM.
Regarding `O=C(Nc1ccc(C2=Nc3c(-c4ccc(Cl)cc4)c(C(F)(F)F)nn3C(=O)C2)cc1)c1ccccc1` [Compound 3], the IC50 under setting [1] was found to be 0.5 µM.
On to `O=c1cc(-c2ccc([N+](=O)[O-])cc2)[nH]c2c(-c3ccc(Cl)c(Cl)c3)c(-c3ccccc3)nn12` [Compound 5], for which, under setting [1], the IC50 amounted to 0.58 µM.
With `O=c1cc(-c2ccc(Oc3ccccc3)cc2)[nH]c2c(-c3ccc(Cl)c(Cl)c3)c(C(F)(F)F)nn12` [Compound 6], the half-maximal inhibitory concentration (IC50) under setting [1] is 0.66 µM and the IC50 under setting [2] was 1.1 µM.
On to `O=c1cc(-c2ccc([N+](=O)[O-])cc2)[nH]c2c(-c3ccc(Cl)c(Cl)c3)c(C(F)(F)F)nn12` [Compound 7], for which the IC50 under setting [1] came out at 0.66 µM.
Turning to `O=c1cc(-c2ccc([N+](=O)[O-])cc2)[nH]c2c(-c3ccc(Cl)c(C(F)(F)F)c3)c(C(F)(F)F)nn12` [Compound 8], the IC50 under setting [1] was determined as 0.67 µM.
As for `O=c1cc(Cc2ccccc2)[nH]c2c(-c3ccc(Cl)c(Cl)c3)c(C(F)(F)F)nn12` [Compound 9], the IC50 stood at 0.84 µM under setting [1] and 1.6 µM under setting [2].
`O=c1c(Cl)c(-c2ccc([N+](=O)[O-])cc2)[nH]c2c(-c3ccc(Cl)cc3)c(C(F)(F)F)nn12` [Compound 10]: the IC50 under setting [1] stood at 0.88 µM.
Same read-out and setting: with `O=c1cc(-c2ccc([N+](=O)[O-])cc2)[nH]c2c(-c3ccc(Cl)cc3)c(-c3ccccc3)nn12` [Compound 11] the figure was 0.96 µM; with `Cc1ccc(-c2cccc(-c3cc(=O)n4nc(C(F)(F)F)c(-c5ccc(Cl)cc5)c4[nH]3)c2)cn1` [Compound 12], 0.96 µM.
Regarding `O=c1c(Cl)c(-c2ccccc2)[nH]c2c(-c3ccc(Cl)cc3)c(C(F)(F)F)nn12` [Compound 13], the half-maximal inhibitory concentration (IC50) under setting [1] turned out to be 0.98 µM.
The same measure, in the same setting: with `O=c1cc(-c2cccc(Oc3ccccc3)c2)[nH]c2c(-c3ccc(Cl)c(Cl)c3)c(C3CC3)nn12` [Compound 14] the figure was 1 µM.
`O=c1cc(-c2ccc(Br)cc2)[nH]c2c(-c3ccc(Cl)cc3)c(C(F)(F)F)nn12` [Compound 15]: the 50% inhibitory concentration (IC50) under setting [1] worked out at 1.1 µM.
The same measure, in the same setting: with `CCC(=O)Nc1ccc(-c2cc(=O)n3nc(C(F)(F)F)c(-c4ccc(Cl)cc4)c3[nH]2)cc1` [Compound 16] the figure was 1 µM; with `O=c1cc(-c2ccc(-c3cccnc3)cc2)[nH]c2c(-c3ccc(Cl)cc3)c(C(F)(F)F)nn12` [Compound 17], 1.1 µM.
For the compound `Cc1nn2c(=O)cc(-c3ccc([N+](=O)[O-])cc3)[nH]c2c1-c1ccc(-c2ccccc2)cc1` [Compound 18], the IC50 under setting [1] stood at 1.1 µM.
In the case of `CN(C)c1ccc(-c2cccc(-c3cc(=O)n4nc(C(F)(F)F)c(-c5ccc(Cl)cc5)c4[nH]3)c2)cn1` [Compound 19], the IC50 under setting [1] came to 1.1 µM.
With `O=c1cc(-c2ccc([N+](=O)[O-])cc2)[nH]c2c(-c3cccc4ccccc34)c(Cc3ccccc3)nn12` [Compound 20], the half-maximal inhibitory concentration (IC50) under setting [1] came out at 1.1 µM.
Consider `O=c1cc(-c2cccc([N+](=O)[O-])c2)[nH]c2c(-c3ccc(Cl)cc3)c(C(F)(F)F)nn12` [Compound 21], for which the IC50 under setting [1] was determined as 1.2 µM.
As to `O=c1cc(-c2ccc([N+](=O)[O-])cc2)[nH]c2c(-c3ccc(Cl)c(Cl)c3)c(C3CC3)nn12` [Compound 22], the IC50 under setting [1] came to 1.2 µM.
`O=c1cc(-c2ccc([N+](=O)[O-])cc2)[nH]c2c(-c3ccc(Cl)c(Cl)c3)c(Cc3ccccc3)nn12` [Compound 23]: the IC50 under setting [1] amounted to 1.2 µM.
Consider `O=c1c(Cl)c(-c2ccc([N+](=O)[O-])cc2)[nH]c2c(-c3ccc(Cl)cc3)c(Cc3ccccc3)nn12` [Compound 24, 2-benzyl-6-chloro-3-(4-chlorophenyl)-5-(4-nitrophenyl)-4H-pyrazolo[1,5-a]pyrimidin-7-one], for which the IC50 reads like this: under setting [1], 1.3 µM; under setting [2], 1.4 µM.
With `O=c1cc(-c2ccc(Cl)cc2)[nH]c2c(-c3ccc(Cl)cc3)c(C(F)(F)F)nn12` [Compound 25], the IC50 under setting [1] was determined as 1.4 µM.
In the case of `COc1cc(-c2c(C)nn3c(=O)cc(-c4ccc([N+](=O)[O-])cc4)[nH]c23)ccc1Cl` [Compound 26], the IC50 under setting [1] amounted to 1.4 µM.
For `O=c1cc(-c2ccc([N+](=O)[O-])cc2)[nH]c2c(-c3ccc(Cl)c(Cl)c3)c(C3CC3)nn12` [Compound 27], under setting [1], the concentration for half-maximal inhibition (IC50) came out at 1.4 µM.
With `CC(c1ccccc1)c1nn2c(=O)cc(-c3ccc([N+](=O)[O-])cc3)[nH]c2c1-c1ccc(Cl)cc1` (stereo not shown) [Compound 28], the concentration for half-maximal inhibition (IC50) under setting [1] stood at 1.4 µM.
Regarding `O=c1cc(-c2ccccc2)[nH]c2c(-c3ccc(Cl)cc3)c(Cc3ccccc3)nn12` [Compound 29], the IC50 reads like this: under setting [1], 1.5 µM; under setting [2], 3.3 µM.
As to `Cc1nn2c(=O)cc(-c3ccc([N+](=O)[O-])cc3)[nH]c2c1-c1ccc(Oc2ccccc2)cc1` [Compound 30], the IC50 under setting [1] came to 1.5 µM.
As to `COc1ccc(-c2cccc(-c3cc(=O)n4nc(C(F)(F)F)c(-c5ccc(Cl)cc5)c4[nH]3)c2)cn1` [Compound 31], under setting [1], the IC50 is 1.5 µM.
Take `CC(C)(C)c1nn2c(=O)cc(-c3ccccc3C#N)[nH]c2c1-c1ccc(Cl)cc1` [Compound 32]: under setting [1], the IC50 stood at 1.5 µM.
Consider `O=c1cc(-c2ccc([N+](=O)[O-])cc2)[nH]c2c(-c3ccc(Cl)cc3)c(C(F)(F)F)nn12` [Compound 33], for which the IC50 was found to be 1.6 µM under setting [1] and 2.6 µM under setting [2].
As to `O=c1cc(-c2cccc(Br)c2)[nH]c2c(-c3ccc(Cl)cc3)c(C(F)(F)F)nn12` [Compound 34], the IC50 under setting [1] is 1.6 µM.
Take `CC(C)CC(=O)Nc1ccc(-c2cc(=O)n3nc(C(F)(F)F)c(-c4ccc(Cl)cc4)c3[nH]2)cc1` [Compound 35]: the IC50 under setting [1] came out at 1.7 µM.
In the case of `Cc1nn2c(=O)cc(-c3ccc([N+](=O)[O-])cc3)[nH]c2c1-c1ccc(Cl)cc1Cl` [Compound 36], the 50% inhibitory concentration (IC50) under setting [1] was determined as 1.7 µM.
For the compound `O=c1cc(-c2ccc([N+](=O)[O-])cc2O)[nH]c2c(-c3ccc(Cl)cc3)c(Cc3ccccc3)nn12` [Compound 37], the IC50 under setting [2] was found to be 1.7 µM.
As to `Cc1nn2c(=O)cc(-c3ccc([N+](=O)[O-])cc3)[nH]c2c1-c1ccc(Cl)cc1` [Compound 39], the IC50 was found to be 1.9 µM under setting [1] and 4.7 µM under setting [2].
On to `N#Cc1ccc(-c2cc(=O)n3nc(C(F)(F)F)c(-c4ccc(Cl)cc4)c3[nH]2)cc1` [Compound 40], for which the IC50 under setting [1] turned out to be 1.9 µM.
Same read-out and setting: with `Cc1nn2c(=O)cc(-c3ccc(NC(=O)Cc4ccccc4)cc3)[nH]c2c1-c1ccc(Cl)cc1` [Compound 41] the figure was 1.9 µM; with `Cc1nn2c(=O)cc(-c3ccc(NC(=O)NCc4ccccc4)cc3)[nH]c2c1-c1ccc(Cl)cc1` [Compound 42], 2.1 µM; with `Cc1nn2c(=O)cc(-c3ccc([N+](=O)[O-])cc3)[nH]c2c1-c1cc(Cl)cc(Cl)c1` [Compound 43], 2.1 µM.
The same measure, in the same setting: in the case of `CC(C)(C)c1nn2c(=O)cc(-c3cccc(C#N)c3)[nH]c2c1-c1ccc(Cl)cc1` [Compound 44] it was 2.2 µM; in that of `CC(c1ccccc1)c1cc(=O)n2nc(C(F)(F)F)c(-c3ccc(Cl)cc3)c2[nH]1` (stereo not shown) [Compound 45], 2.3 µM.
As for `O=c1cc(-c2ccc([N+](=O)[O-])cc2)[nH]c2c(-c3ccc(Cl)cc3)c(Cc3ccncc3)nn12` [Compound 46], the IC50 was found to be 2.4 µM under setting [1] and 3.2 µM under setting [2].
In the case of `O=c1cc(-c2ccc(-c3ccncc3)cc2)[nH]c2c(-c3ccc(Cl)cc3)c(C(F)(F)F)nn12` [Compound 47], the IC50 under setting [1] came out at 2.4 µM.
The same measure, in the same setting: with `Cc1nn2c(=O)cc(-c3ccc(NC(=O)c4ccccc4)cc3)[nH]c2c1-c1ccc(Cl)cc1` [Compound 48] the figure was 2.4 µM; with `O=c1c(Cl)c(-c2ccccc2)[nH]c2c(-c3ccc(Cl)cc3)c(Cc3ccccc3)nn12` [Compound 49], 2.5 µM.
`CC(C)CC(=O)Nc1cccc(-c2cc(=O)n3nc(C(F)(F)F)c(-c4ccc(Cl)cc4)c3[nH]2)c1` [Compound 50]: the IC50 under setting [1] worked out at 2.5 µM.
For the compound `Cc1nn2c(=O)cc(-c3ccc([N+](=O)[O-])cc3)[nH]c2c1-c1cccc2ccccc12` [Compound 51], the IC50 under setting [1] worked out at 2.7 µM and the half-inhibitory concentration (IC50) under setting [2] turned out to be 4.9 µM.
On to `O=c1cc(-c2ccc([N+](=O)[O-])cc2)[nH]c2c(-c3ccc(Cl)cc3)c(Cc3cccnc3)nn12` [Compound 52], for which the IC50 was 2.8 µM under setting [1] and 4.8 µM under setting [2].
Take `Cc1nn2c(=O)cc(-c3cccc(-c4cccnc4)c3)[nH]c2c1-c1ccc(Cl)cc1` [Compound 53]: the concentration for half-maximal inhibition (IC50) under setting [1] stood at 3 µM.
On the same count and under the same terms, in the case of `CSc1ccc(Cc2nn3c(=O)cc(-c4ccc([N+](=O)[O-])cc4)[nH]c3c2-c2ccc(Cl)cc2)cc1` [Compound 54] it was 3 µM.

The record behind these values is patent US10849901B2, “Arf6 inhibitors and methods of synthesis and use thereof” (Navigen, Inc., priority 2014, dated 2020).
